In patent publication US20070248705A1, “Agents for Activating the Transcription Factor Nrf2 and Foods Having Such Function” (KIRIN BEER KABUSHIKI KAISHA, priority 2004, published 2007):

How the values were obtained:
Nrf2 = Nrf2 activation in ARE reporter assay system, RAW264.7; type: cell-based, mouse; conditions: RAW264.7, 5 μM, 24 hours
Procedure: To construct the reporter plasmid pGL3-mARE3A, a double-stranded oligo DNA with 3 repeats of mouse NQO1-derived ARE (antioxidant response element) to which Nrf2 is believed to bind was constructed and inserted into the MluI-NheI site of the firefly luciferase reporter vector pGL3-promoter vector (available from Promega).
The double-stranded oligo DNA containing AREs was prepared by chemically synthesizing two single-stranded oligo DNAs, 5 ′-[…] G-3′ (SEQ ID NO: 1) and 5′-[…]-3′(SEQ ID NO: 2), and annealing them. Further, DNA sequence analysis confirmed that the product obtained was the plasmid of interest. Next, a mouse macrophage cell line RAW264.7 (available from American Type Culture Collection) was seeded on a 12-well plate (4×10^5 cells/well), 0.8 ml of an RPMI1640 medium (Invitrogen) supplemented with 10% fetal bovine serum (HyClone) and penicillin-streptomycin (100 units/ml and 100 μg/ml, respectively; Sigma) was added, and the plate was incubated at 37° C. in an atmosphere of 5% CO2 overnight. […] The cells were broken using a Dual-Luciferase reporter assay system (Promega) and then firefly luciferase activity and renilla luciferase activity were measured using a luminometer (Luminous CT-9000D, Dia-Iatron). […]

[1] = system: glucose-6-phosphate dehydrogenase, X-linked (G6PDX); test: Expression of genes controlled by Nrf2 in RAW264.7: G6PDX; type: cell-based, mouse; conditions: RAW264.7, 25 μM, 20 hours
Procedure: (§1) A mouse macrophage cell line RAW264.7 was seeded on a φ60 mm dish (9×10^5 cells), 2 ml of a D-MEM medium (Invitrogen) supplemented with 10% fetal bovine serum (HyClone) and penicillin-streptomycin (100 units/ml and 100 μg/ml, respectively; Sigma) was added, and the dish was incubated at 37° C. in an atmosphere of 5% CO2 for 2 days. The medium was replaced with a fresh medium containing individual samples and incubation was continued for another 20 hours. Then, the total RNA was prepared using TRIzol (Invitrogen) and purified using a RNeasy Mini kit (Qiagen) and an RNase-free DNase set (Qiagen). Further, cDNA was synthesized from 5 μg of the purified total RNA using a Thermo Script RT-PCR system (Invitrogen), and the amount of mRNA expression of various genes was determined using a FastStart DNA Master SYBR Green I kit (Roche) and a Light Cycler (Roche).
(§2) The amount of expression of the various genes was corrected by the amount of expression of the housekeeping gene PO and calculated as a relative expression level (n=2, mean±standard deviation). […]

[2] = system: quinone reductase (QR) activity in mouse hepatoma Hepa1c1c7 cells; test: Induction of quinone reductase (QR) activity; type: cell-based; conditions: Hepa1c1c7 cells, 0.6, 1.7, 5, and 15 μM, 48 hours; listed as HI (F)
Procedure: It has been known that quinone reductase (QR) activity is increased by increasing the expression of NAD(P)H:quinone oxidoreductase (NQO1) by Nrf2 activation (Proc Natl Acad Sci USA. 101, 10446-51 (2004)). Accordingly, isohumulones were allowed to act on mouse hepatoma Hepa1c1c7 cells (available from Dainippon Pharmaceutical Co., Ltd.) to examine whether the QR activity was induced.
The QR activity was measured in accordance with the method described in Analytical Biochemistry 169, 328-336 (1988).
A mouse hepatoma cell line Hepa1c1c7 was seeded on a 96-well plate (7-10×10^3 cells/well), 50 μl each of an α-MEM medium (Invitrogen) supplemented with 10% fetal bovine serum (HyClone) and penicillin-streptomycin (100 units/ml and 100 μg/ml, respectively; Sigma) was added, and the plate was incubated at […] in an atmosphere of 5% CO2 overnight. Next, the culture medium was replaced with a medium containing isomerized hop extract individually at a concentration of 1.9, 5.6, 16.7, or 50 μg/ml, or with a medium containing humulone (H), cohumulone (cH), adhumulone (aH), isohumulone (IH), isohumulone (IcH), or isohumulone (IaH) individually at a concentration of 0.6, 1.7, 5, and 15 μM and the plate was further incubated for 48 hours. Then, the cells in each well were broken using 0.08% digitonin and a 2 mM EDTA solution and absorption at 610 nm was measured by a menadione-formazan system using a microplate reader (Power Wave 200, Bio-Tek Instruments).
The QR inducing activity was calculated as a relative activity setting the activity of cells without addition to be 1 (n=3, mean±standard variation). Sulforaphane (Sul, available from Sigma) was used as a positive control.

[3] = system: NAD(P)H:quinone oxidoreductase (NQO1); test: Expression of genes controlled by Nrf2 in RAW264.7: NQO1; type: cell-based, mouse; conditions: RAW264.7, 25 μM, 20 hours
Procedure: as §1, §2

**Q.** With `CC(C)=CCC(=O)C1(O)C(O)=C(C(=O)CC(C)C)C(=O)C1CC=C(C)C` (stereo not shown) [IH (F), isohumulone] as the compound, how does the “Nrf2 activation activity (relative luciferase activity)” value (Nrf2) read?
**A.** confirmed the activation

**Q.** And the “expression of G6PDX” value [1]?
**A.** augmented the expression

**Q.** And the QR inducing activity [2]?
**A.** activity was higher in isohumulones having a higher trans form content

**Q.** And the “expression of NQO1” value [3]?
**A.** augmented the expression
